# In ChEMBL document CHEMBL5338785, “Development of Aromatic-Linked Diamino Acid Antimicrobial Peptide Mimics with Low Hemolytic Toxicity and Excellent Activity against Methicillin-Resistant Staphylococcus aureus (MRSA)” (J Med Chem, 2023):
# Calls of active or inactive are those of the source. The calls are words filed in the database; no cut-off is given here.
# Columns and labels:
# [1] = test system: Stenotrophomonas maltophilia; assay: Antibacterial activity against Stenotrophomonas maltophilia assessed as bacterial growth inhibition; format: functional
# Enterococcus faecalis [2] = assay: Antibacterial activity against Enterococcus faecalis assessed as bacterial growth inhibition; format: functional
# Staphylococcus aureus [3] = assay: Antibacterial activity against methicillin-resistant Staphylococcus aureus assessed as bacterial growth inhibition; format: functional
# Escherichia coli [4] = assay: Antibacterial activity against Escherichia coli assessed as bacterial growth inhibition; format: functional
# [5] = Selectivity index, ratio of HC50 for hemolytic activity in human erythrocytes to MIC for antibacterial activity against methicillin-resistant Staphylococcus aureus assessed as bacterial growth inhibition; format: toxicity, cell-based
# Escherichia coli [6] = assay: Antibacterial activity against Escherichia coli assessed as bacterial growth inhibition incubated for 18 hrs by CLSI protocol based Mueller-Hinton broth assay; format: functional; conditions: Escherichia coli, read-out: MIC
# Enterococcus faecalis [7] = assay: Antibacterial activity against Enterococcus faecalis assessed as bacterial growth inhibition incubated for 18 hrs by CLSI protocol based Mueller-Hinton broth assay; format: functional; conditions: Enterococcus faecalis, 18 h, read-out: MIC
# [8] = test system: Stenotrophomonas maltophilia; assay: Antibacterial activity against Stenotrophomonas maltophilia assessed as bacterial growth inhibition incubated for 18 hrs by CLSI protocol based Mueller-Hinton broth assay; format: functional; conditions: Stenotrophomonas maltophilia, read-out: MIC
# [9] = Selectivity index, ratio of HC50 for hemolytic activity in sheep RBC to MIC for antibacterial activity against methicillin-resistant Staphylococcus aureus assessed as bacterial growth inhibition; format: toxicity; conditions: sheep red blood cells
# [10] = Cytotoxicity against HUVEC cells assessed as reduction in cell viability incubated for 72 hrs by CCK8 assay; format: toxicity, cell-based; conditions: human
# [11] = Hemolytic activity in sheep RBC assessed as hemolysis incubated for 1 hr by microplate reader method; format: toxicity, cell-based, Ovis aries, Erythrocyte; conditions: sheep red blood cells
# [12] = Hemolytic activity in human erythrocytes assessed as hemolysis; format: toxicity, cell-based, Erythrocyte
# Staphylococcus aureus [13] = assay: Antibacterial activity against methicillin-resistant Staphylococcus aureus assessed as bacterial growth inhibition incubated for 18 hrs by CLSI protocol based Mueller-Hinton broth assay; format: functional; conditions: Staphylococcus aureus, read-out: MIC
# [14] = Hemolytic activity in human RBC assessed as hemolysis incubated for 1 hr; format: toxicity, cell-based, Erythrocyte; conditions: human red blood cells
# [15] = Selectivity index, ratio of HC50 for hemolytic activity in human RBC to MIC for antibacterial activity against methicillin-resistant Staphylococcus aureus assessed as bacterial growth inhibition; format: toxicity; conditions: human red blood cells
# Staphylococcus aureus [16] = assay: Antibacterial activity against methicillin-resistant Staphylococcus aureus assessed as bacterial growth inhibition incubated for 24 hrs by Luria-Bertani broth based method; format: functional
# [17] = Selectivity index, ratio of HC50 for hemolytic activity in mammalian RBC to MIC for antibacterial activity against methicillin-resistant Staphylococcus aureus assessed as bacterial growth inhibition; format: toxicity; conditions: mammalian red blood cells
# [18] = Hemolytic activity in mammalian RBC assessed as hemolysis; format: toxicity, cell-based, Erythrocyte; conditions: mammalia, mammalian red blood cells
# Staphylococcus aureus [19] = assay: In vivo antibacterial activity against methicillin-resistant Staphylococcus aureus infected in SPF Kunming mouse assessed as reduction in neutrophils in skin tissue at 10 mg/kg ,ip administered every 12 hrs for 3 consecutive days; format: functional, organism-based; conditions: time 3.0 day
# [20] = Metabolic stability in SPF Kunming mouse assessed as half life at 5 mg/kg/day, iv; format: ADME, organism-based; conditions: in vivo
# [21] = Selectivity index, ratio of HC50 for hemolytic activity in sheep RBC to IC50 for antibacterial activity against Salmonella enterica assessed as bacterial growth inhibition; conditions: sheep red blood cells
# [22] = Toxicity in SPF Kunming mouse assessed as lethal dose administered for 3 days; conditions: in vivo, 72 h, time 3 day
# Enterococcus faecium = assay: Antibacterial activity against Enterococcus faecium clinical isolates assessed as bacterial growth inhibition incubated for 18 hrs by CLSI protocol based Mueller-Hinton broth assay; format: functional
# [23] = Hemolytic activity in mammalian RBC assessed as hemolysis at 320 ug/ml incubated for 1 hr by microplate reader analysis; format: toxicity, cell-based, Erythrocyte; conditions: mammalia, mammalian red blood cells, at 320 µg/mL, read-out: Activity
# Staphylococcus aureus [24] = assay: Bactericidal activity against methicillin-resistant Staphylococcus aureus assessed as decrease in viable count measured up to 4 hrs by time-killing kinetics assay; format: functional, organism-based; conditions: dose 2-4 µg/ml
# Staphylococcus aureus [25] = assay: Induction of intracellular ROS accumulation in methicillin-resistant Staphylococcus aureus assessed as fold increase in fluorescence intensity at 0.5 ug/ml incubated for 30 mins by DCFH-DA dye based fluorescence assay; format: functional; conditions: dose 0.5 µg/ml
# Staphylococcus aureus [26] = assay: Antibacterial activity against methicillin-resistant Staphylococcus aureus assessed as resistance development at 0.5 to 1 ug/ml measured after 20 days by resistance development assay; format: functional, organism-based; conditions: dose 0.5-1 µg/ml, time 20.0 day
# Staphylococcus aureus [27] = assay: Induction of cytoplasmic membrane depolarization in methicillin-resistant Staphylococcus aureus assessed as fold increase in fluorescence intensity at 16 ug/ml measured at 1 min interval for 16 mins by DiSC3(5) dye based fluorescence method; format: functional; conditions: dose 16 µg/ml
# [28] = Selectivity index, ratio of HC50 for hemolytic activity in sheep RBC to IC50 for antibacterial activity against Escherichia coli assessed as bacterial growth inhibition; format: toxicity; conditions: sheep red blood cells
# Staphylococcus aureus [29] = assay: Bactericidal activity against methicillin-resistant Staphylococcus aureus assessed as reduction in turbidity at 2 to 4 ug/ml measured after 6 hrs; format: functional, organism-based; conditions: dose 2-4 µg/ml
# Staphylococcus aureus [30] = assay: Antibacterial activity against methicillin-resistant Staphylococcus aureus assessed as fold decrease in MIC in presence of NAC incubated for 18 hrs by CLSI protocol based Mueller-Hinton broth assay; format: functional
# Staphylococcus aureus [31] = assay: Antibacterial activity against methicillin-resistant Staphylococcus aureus assessed as bacterial growth inhibition in presence of phosphoethanolamine incubated for 18 hrs by checkerboard microdilution assay; format: functional, organism-based
# Staphylococcus aureus [32] = assay: Antibacterial activity against methicillin-resistant Staphylococcus aureus assessed as bacterial growth inhibition in presence of phosphatidylcholine incubated for 18 hrs by checkerboard microdilution assay; format: functional, organism-based
# Escherichia coli [33] = assay: Antibacterial activity against carbapenems-resistant Escherichia coli expressing blaNDM-9 clinical isolates assessed as bacterial growth inhibition incubated for 18 hrs by CLSI protocol based Mueller-Hinton broth assay; format: functional
# Citrobacter freundii = assay: Antibacterial activity against carbapenems-resistant Citrobacter freundii expressing blaNDM-1 clinical isolates assessed as bacterial growth inhibition incubated for 18 hrs by CLSI protocol based Mueller-Hinton broth assay; format: functional
# Pseudomonas aeruginosa = assay: Antibacterial activity against carbapenems-resistant Pseudomonas aeruginosa expressing blaVIM-1 clinical isolates assessed as bacterial growth inhibition incubated for 18 hrs by CLSI protocol based Mueller-Hinton broth assay; format: functional
# Staphylococcus aureus [34] = assay: Bactericidal activity against methicillin-resistant Staphylococcus aureus assessed as decrease in viable count at 2 to 4 ug/ml by time-killing kinetics assay; format: functional, organism-based; conditions: dose 2-4 µg/ml, time <= 4.0 hrs, TDE = time-dependent effect
# Staphylococcus aureus [35] = assay: Induction of cytoplasmic membrane depolarization in methicillin-resistant Staphylococcus aureus assessed as enhancement of fluorescence intensity measured at 1 min interval for 16 mins by DiSC3(5) dye based fluorescence method; format: functional, organism-based; conditions: dose 0.5-16 µg/ml
# Escherichia coli [36] = assay: Antibacterial activity against carbapenems-resistant Escherichia coli expressing blaNDM-3 clinical isolates assessed as bacterial growth inhibition incubated for 18 hrs by CLSI protocol based Mueller-Hinton broth assay; format: functional
# Staphylococcus aureus [37] = assay: In vivo antibacterial activity against methicillin-resistant Staphylococcus aureus infected in SPF Kunming mouse assessed as reduction in amount of bacteria measure per abscess at 5 mg/kg ,ip administered every 12 hrs for 3 consecutive days; format: functional; conditions: time 3 day
# Staphylococcus aureus [38] = assay: In vivo antibacterial activity against methicillin-resistant Staphylococcus aureus infected in SPF Kunming mouse assessed as reduction in amount of bacteria measured per abscess at 10 mg/kg ,ip administered every 12 hrs for 3 consecutive days; format: functional; conditions: time 3 day
# Staphylococcus aureus [39] = assay: Induction of morphological changes in methicillin-resistant Staphylococcus aureus assessed as appearance of wrinkled cell surface at 8 ug/ml incubated for 4 hrs by SEM analysis; format: functional, organism-based; conditions: dose 8.0 µg/ml
# Escherichia coli [40] = assay: Antibacterial activity against carbapenems-resistant Escherichia coli expressing blaNDM-5 clinical isolates assessed as bacterial growth inhibition incubated for 18 hrs by CLSI protocol based Mueller-Hinton broth assay; format: functional
# Staphylococcus aureus [41] = assay: Induction of morphological changes in methicillin-resistant Staphylococcus aureus assessed as appearance of shrunken cell surface at 8 ug/ml incubated for 4 hrs by SEM analysis; format: functional, organism-based; conditions: dose 8.0 µg/ml
# [42] = Toxicity in HUVEC cells assessed as morphological changes at 16 ug/ml incubated for 24 hrs by optical microscopy imaging analysis; format: cell-based; conditions: human, dose 16 µg/ml
# [43] = Selectivity index, ratio of HC50 for hemolytic activity in sheep RBC to IC50 for antibacterial activity against Enterococcus faecalis assessed as bacterial growth inhibition; format: toxicity; conditions: sheep red blood cells
# Staphylococcus aureus [44] = assay: Antibacterial activity against methicillin-resistant Staphylococcus aureus assessed as bacterial growth inhibition in presence of phosphatidylglycerol incubated for 18 hrs by checkerboard microdilution assay; format: functional, organism-based
# [45] = Toxicity in HUVEC cells assessed as live cells by measuring increase in green fluorescence at 16 ug/ml incubated for 24 hrs by calcein AM and propidium iodide staining based fuorescence microscopic analysis; format: cell-based; conditions: human, dose 16 µg/ml
# Staphylococcus aureus [46] = assay: Antibacterial activity against methicillin-resistant Staphylococcus aureus clinical isolates assessed as bacterial growth inhibition incubated for 18 hrs by CLSI protocol based Mueller-Hinton broth assay; format: functional
# Staphylococcus aureus [47] = assay: Induction of intracellular ROS accumulation in methicillin-resistant Staphylococcus aureus assessed as increase in fluorescence intensity incubated for 30 mins by DCFH-DA dye based fluorescence assay; format: functional, organism-based; conditions: dose 0.125-8 µg/ml
compound,measurement,setting,value
CCCCCCN(CCCCCCCCCCCCN(CCCCCC)C(=O)[C@@H](N)CCCCN)C(=O)[C@@H](N)CCCCN.Cl.Cl.Cl.Cl,MIC,[1],1 µg/mL
same,MIC,Enterococcus faecalis [2],1 µg/mL
same,MIC,Staphylococcus aureus [3],2 µg/mL
same,MIC,Escherichia coli [4],1 µg/mL
CCCCCCN(Cc1ccc(-c2ccc(CN(CCCCCC)C(=O)[C@@H](N)CCCCN)cc2)cc1)C(=O)[C@@H](N)CCCCN.O=C(O)C(F)(F)F.O=C(O)C(F)(F)F.O=C(O)C(F)(F)F.O=C(O)C(F)(F)F,selectivity ratio,[5],74.2
same,MIC,Escherichia coli [6]; 18 h,4 µg/mL
same,MIC,Enterococcus faecalis [7],2 µg/mL
same,MIC,[8],4 µg/mL
same,selectivity ratio,[9],138
same,CC50 at 72 h,[10],14.2 µg/mL
same,HC50 at 1 h,[11],276 µg/mL
same,MIC,Staphylococcus aureus [3],3.1 µg/mL
same,HC50,[12],230 µg/mL
same,MIC,Staphylococcus aureus [13],2 µg/mL
CCCCCCCC[N+](C)(C)CC(=O)NCCCCCCNC(=O)C[N+](C)(C)CCCCCCCC.[Br-].[Br-],HC50 at 1 h,[14],780 µg/mL
same,selectivity ratio,[15],410
same,MIC,Staphylococcus aureus [16],1.9 µg/mL
CCCCCCCC[N+](C)(C)CCCCOc1ccc(OCCCC[N+](C)(C)CCCCCCCC)cc1.[Br-].[Br-],selectivity ratio,[17],4840
same,MIC,Staphylococcus aureus [3],0.25 µg/mL
same,HC50,[18],1210 µg/mL
CCCCCCN(CCCOc1ccccc1-c1ccccc1OCCCN(CCCCCC)C(=O)[C@@H](N)CCCCN)C(=O)[C@@H](N)CCCCN.Cl.Cl.Cl.Cl,Activity,Staphylococcus aureus [19],Active
same,half-life,[20],4.21 h
same,selectivity ratio,[21],> 500
same,LD50,[22],> 200 mg/kg/day
same,MIC50,Enterococcus faecium,1 µg/mL
same,MIC90,Enterococcus faecium,2 µg/mL
same,"hemolysis at 1 h, 320 ug/ml",[23],< 1%
same,Activity,Staphylococcus aureus [24],Dose-Dependent Effect
same,fold change (FC),Staphylococcus aureus [25],3.4
same,Activity,Staphylococcus aureus [26],Active
same,fold change (FC),Staphylococcus aureus [27],10
same,selectivity ratio,[28],> 500
same,Activity,Staphylococcus aureus [29],Active
same,fold change (FC),Staphylococcus aureus [30],16
same,inhibition,Staphylococcus aureus [31],inactive
same,MIC,Escherichia coli [6],2 µg/mL
same,inhibition,Staphylococcus aureus [32],inactive
same,MIC,Escherichia coli [33],2 µg/mL
same,MIC,Enterococcus faecalis [7],0.5 µg/mL
same,MIC,Citrobacter freundii,2 µg/mL
same,MIC,[8],2 µg/mL
same,MIC,Pseudomonas aeruginosa,2 µg/mL
same,selectivity ratio,[9],> 2000
same,Activity,Staphylococcus aureus [34],Tde
same,Activity,Staphylococcus aureus [35],Active
same,MIC,Escherichia coli [36],2 µg/mL
same,CC50 at 72 h,[10],24.2 µg/mL
same,Activity,Staphylococcus aureus [37],758577.6 CFU
same,Activity,Staphylococcus aureus [38],46773.51 CFU
same,Activity,Staphylococcus aureus [39],Active
same,MIC,Escherichia coli [40],2 µg/mL
same,Activity,Staphylococcus aureus [41],Active
same,HC50 at 1 h,[11],> 1000 µg/mL
same,Activity,[42],Non-Toxic
same,MIC,Staphylococcus aureus [13],0.5 µg/mL
same,selectivity ratio,[43],> 2000
same,inhibition,Staphylococcus aureus [44],Active
same,Activity,[45],Non-Toxic
same,MIC50,Staphylococcus aureus [46],1 µg/mL
same,MIC90,Staphylococcus aureus [46],2 µg/mL
same,Activity,Staphylococcus aureus [47],Dose-Dependent Effect
